Test results as given in patent US11149031B2, “Substituted N-(3-fluoropropyl)-pyrrolidine compounds, processes for their preparation and therapeutic uses thereof” (SANOFI, priority 2016, dated 2021).
Read-outs that look alike come from different tables or passages of the source.

Experiments:
[1] = target: His6-ERα298-554 WT (ERα ligand-binding domain) (Homo sapiens (Human), UniProt P03372); assay: Test A: biochemical antagonist activity, LanthaScreen TR-FRET ERα coactivator assay, WT; conditions: read-out: Antagonism WT IC50
Chain of His6-ERα298-554 WT (ERα ligand-binding domain) (P03372 298-554): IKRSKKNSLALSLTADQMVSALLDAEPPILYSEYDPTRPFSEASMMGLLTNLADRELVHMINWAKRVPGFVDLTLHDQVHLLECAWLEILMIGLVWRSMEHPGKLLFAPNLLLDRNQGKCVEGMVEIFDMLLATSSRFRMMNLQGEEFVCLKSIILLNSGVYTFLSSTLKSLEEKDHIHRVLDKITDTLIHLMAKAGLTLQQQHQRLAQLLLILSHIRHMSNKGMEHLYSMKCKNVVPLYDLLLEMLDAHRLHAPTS
In short: (§1)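 TR-FRET 520:495 nm emission ratio read after overnight room-temperature incubation; IC50 derived by 4-parameter logistic fit. Mix: 0.5 nM receptor LBD, 0.5 nM Tb-His6 antibody, 250 nM PGC1a peptide, 3 nM or 10 nM estradiol, pH 7.4 phosphate buffer.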

[2] = target: His6-ERα298-554 D538G mutant (ERα ligand-binding domain) (Homo sapiens (Human), UniProt P03372, D538G); assay: Test A: biochemical antagonist activity, LanthaScreen TR-FRET ERα coactivator assay, D538G mutant; conditions: read-out: Antagonism D538G IC50
Chain of His6-ERα298-554 D538G mutant (ERα ligand-binding domain) (P03372 298-554 D538G): as the sequence (P03372 298-554) above, with D241G counted along it
In short: as §1

[3] = target: His6-ERα298-554 Y537S mutant (ERα ligand-binding domain) (Homo sapiens (Human), UniProt P03372, Y537S); assay: Test A: biochemical antagonist activity, LanthaScreen TR-FRET ERα coactivator assay, Y537S mutant; conditions: read-out: Antagonism Y537S IC50
Chain of His6-ERα298-554 Y537S mutant (ERα ligand-binding domain) (P03372 298-554 Y537S): as the sequence (P03372 298-554) above, with Y240S counted along it
In short: as §1

[4] = test system: MCF7 cells (breast tumor cells) WT; assay: Test B: cell proliferation/viability assay (CellTiter-Glo) on MCF7 WT; assay type: cell-based; conditions: Homo sapiens, MCF7, 168 h, 7 days of compound exposure
In short: (§2)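 Viability is measured in MCF7 cells, either parental or engineered to depend on mutant estrogen receptor. Compounds act for 7 days at final concentrations from 3 to 0.000001 μM in hormone-depleted medium, with ATP luminescence as the read-out.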

[5] = test system: MCF7 cells expressing mutant estrogen receptor Tyr 537 Ser; assay: Test B: cell proliferation/viability assay (CellTiter-Glo) on MCF7 Tyr 537 Ser mutant; assay type: cell-based; conditions: Homo sapiens, MCF7, 168 h, MCF7 cells expressing ER Tyr 537 Ser mutant, 7 days of compound exposure, read-out: proliferation MCF7 Y537S IC50
In short: as §2

[6] = test system: MCF7 cells expressing mutant estrogen receptor Asp 538 Gly; assay: Test B: cell proliferation/viability assay (CellTiter-Glo) on MCF7 Asp 538 Gly mutant; assay type: cell-based; conditions: Homo sapiens, MCF7, 168 h, MCF7 cells expressing ER Asp 538 Gly mutant, 7 days of compound exposure, read-out: proliferation MCF7 D538G IC50
In short: as §2

[7] = target: ERα in MCF7 cells (Homo sapiens (Human), UniProt P03372); assay: Test C: estrogen receptor degradation activity, ERα in cell western assay in MCF7 cells; assay type: cell-based; conditions: for DC50: 4 hours post compound addition, ERα in cell western, read-out: Degradation IC50; for % Degradation at 3 μM: 4 hours, relative to fulvestrant
Chain of ERα in MCF7 cells (P03372 whole entry): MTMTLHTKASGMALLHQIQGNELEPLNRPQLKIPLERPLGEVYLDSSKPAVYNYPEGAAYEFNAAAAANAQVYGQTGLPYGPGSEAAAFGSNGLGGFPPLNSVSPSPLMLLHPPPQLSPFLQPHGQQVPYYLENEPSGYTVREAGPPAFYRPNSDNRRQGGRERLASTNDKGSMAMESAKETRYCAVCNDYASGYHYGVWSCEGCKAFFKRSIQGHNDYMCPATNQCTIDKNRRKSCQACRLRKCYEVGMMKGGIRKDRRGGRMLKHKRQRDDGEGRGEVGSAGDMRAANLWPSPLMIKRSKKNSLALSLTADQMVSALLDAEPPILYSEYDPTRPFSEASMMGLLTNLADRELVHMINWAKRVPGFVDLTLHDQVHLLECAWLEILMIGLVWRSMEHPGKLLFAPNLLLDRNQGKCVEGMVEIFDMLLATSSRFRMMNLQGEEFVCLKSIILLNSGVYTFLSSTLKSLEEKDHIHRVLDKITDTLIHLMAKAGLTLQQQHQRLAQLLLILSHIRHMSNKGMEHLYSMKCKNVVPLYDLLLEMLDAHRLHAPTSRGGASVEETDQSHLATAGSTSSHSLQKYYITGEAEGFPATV
In short: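 Degradation of ERα was gauged in MCF7 cells after 4 h treatment, by fluorescence immunostaining normalised against DNA content.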

[8] = asterisk (*): protocol using 10 nM estradiol

| Compound | IC50 [1, 8] [nM] | IC50 [2, 8] [nM] | IC50 [3, 8] [nM] | IC50 [4] [nM] | IC50 [5] [nM] | IC50 [6] [nM] | DC50 [7] [nM] | % Degradation at 3 μM [7] [%] | IC50 ([1]; protocol with 3 nM estradiol) [nM] | IC50 ([2]; protocol with 3 nM estradiol) [nM] | IC50 ([3]; protocol with 3 nM estradiol) [nM] |
| --- | --- | --- | --- | --- | --- | --- | --- | --- | --- | --- | --- |
| CCOc1ccc(C2=C(c3ccc(O[C@H]4CCN(CCCF)C4)cc3)c3ccc(O)cc3SCC2)c(C)c1 [Example 186, 4-(4-ethoxy-2-methyl-phenyl)-5-[4-[(3S)-1-(3-fluoropropyl)pyrrolidin-3-yl]oxyphenyl]-2,3-dihydro-1-benzothiepin-8-ol] | 1 | 21 | 16 | 0.3 | 5 | 0.4 | 0.6 | 85 |  |  |  |
| CCOc1ccc(C2=C(c3ccc(O[C@H]4CCN(CCCF)C4)cc3)c3ccc(O)cc3SCC2)c(F)n1 [Example 187, 4-(6-ethoxy-2-fluoro-3-pyridyl)-5-[4-[(3S)-1-(3-fluoropropyl)pyrrolidin-3-yl]oxyphenyl]-2,3-dihydro-1-benzothiepin-8-ol] |  |  |  | 0.2 | 4 | 0.7 | 0.5 | 92 | 1.5 | 43 | 22 |
| Oc1ccc2c(c1)SCCC(c1ccc(F)c(OC(F)F)c1)=C2c1ccc(O[C@H]2CCN(CCCF)C2)cc1 [Example 188, 4-[3-(difluoromethoxy)-4-fluoro-phenyl]-5-[4-[(3S)-1-(3-fluoropropyl)pyrrolidin-3-yl]oxyphenyl]-2,3-dihydro-1-benzothiepin-8-ol] |  |  |  | 0.2 | 4 | 2 | 0.8 | 90 | 8.2 | 266 | 157 |
| COc1ccc(C2=C(c3ccc(O[C@H]4CCN(CCCF)C4)cc3)c3ccc(O)cc3SCC2)c(F)c1 [Example 189, 4-(2-fluoro-4-methoxy-phenyl)-5-[4-[(3S)-1-(3-fluoropropyl)pyrrolidin-3-yl]oxyphenyl]-2,3-dihydro-1-benzothiepin-8-ol] | 2 | 31 | 19 | 0.2 | 4 | 1 | 0.3 | 88 |  |  |  |
| Oc1ccc2c(c1)SCCC(c1ccc(OC(F)(F)F)c(F)c1)=C2c1ccc(O[C@H]2CCN(CCCF)C2)cc1 [Example 190, 5-[4-[(3S)-1-(3-fluoropropyl)pyrrolidin-3-yl]oxyphenyl]-4-[3-fluoro-4-(trifluoromethoxy)phenyl]-2,3-dihydro-1-benzothiepin-8-ol] | 39 | 638 | 425 | 0.2 | 6 | 0.8 | 0.5 | 91 |  |  |  |
| Oc1ccc2c(c1)SCCC(c1ccc(OC(F)F)c(F)c1)=C2c1ccc(O[C@H]2CCN(CCCF)C2)cc1 [Example 191, 4-[4-(difluoromethoxy)-3-fluoro-phenyl]-5-[4-[(3S)-1-(3-fluoropropyl)pyrrolidin-3-yl]oxyphenyl]-2,3-dihydro-1-benzothiepin-8-ol] |  |  |  | 0.3 | 3 | 0.4 | 0.2 | 95 | 3 | 51 | 32 |
| Cc1ccc(C2=C(c3ccc(O[C@H]4CCN(CCCF)C4)cc3)c3ccc(O)cc3SCC2)c(F)n1 [Example 192, 4-(2-fluoro-6-methyl-3-pyridyl)-5-[4-[(3S)-1-(3-fluoropropyl)pyrrolidin-3-yl]oxyphenyl]-2,3-dihydro-1-benzothiepin-8-ol] | 9 | 205 | 109 | 0.3 | 5 | 0.9 | 0.4 | 91 |  |  |  |
| Oc1ccc2c(c1)SCCC(c1ccc3c(c1)OC(F)(F)O3)=C2c1ccc(O[C@H]2CCN(CCCF)C2)cc1 [Example 193, 4-(2,2-difluoro-1,3-benzodioxol-5-yl)-5-[4-[(3S)-1-(3-fluoropropyl)pyrrolidin-3-yl]oxyphenyl]-2,3-dihydro-1-benzothiepin-8-ol] | 1 | 25 | 20 | 0.3 | 5 | 0.5 | 0.2 | 91 |  |  |  |
| CS(=O)(=O)c1ccc(C2=C(c3ccc(O[C@H]4CCN(CCCF)C4)cc3)c3ccc(O)cc3SCC2)cc1 [Example 194, 5-[4-[(3S)-1-(3-fluoropropyl)pyrrolidin-3-yl]oxyphenyl]-4-(4-methylsulfonylphenyl)-2,3-dihydro-1-benzothiepin-8-ol] | 10 | 206 | 141 | 0.2 | 3 | 0.4 | 0.2 | 89 |  |  |  |
| CCOc1cc(C2=C(c3ccc(O[C@H]4CCN(CCCF)C4)cc3)c3ccc(O)cc3SCC2)ccc1F [Example 195, 4-(3-ethoxy-4-fluoro-phenyl)-5-[4-[(3S)-1-(3-fluoropropyl)pyrrolidin-3-yl]oxyphenyl]-2,3-dihydro-1-benzothiepin-8-ol] | 14 | 335 | 170 | 0.3 | 3 | 0.7 | 0.4 | 97 |  |  |  |
| CCOc1ccc(C2=C(c3ccc(O[C@H]4CCN(CCCF)C4)cc3)c3ccc(O)cc3SCC2)c(F)c1 [Example 196, 4-(4-ethoxy-2-fluoro-phenyl)-5-[4-[(3S)-1-(3-fluoropropyl)pyrrolidin-3-yl]oxyphenyl]-2,3-dihydro-1-benzothiepin-8-ol] | 3 | 63 | 36 | 0.4 | 6 | 1 | 0.3 | 93 |  |  |  |
| CC1Cc2cc(C3=C(c4ccc(O[C@H]5CCN(CCCF)C5)cc4)c4ccc(O)cc4SCC3)ccc2O1 (stereo partly drawn) [Example 197, 5-[4-[(3S)-1-(3-fluoropropyl)pyrrolidin-3-yl]oxyphenyl]-4-(2-methyl-2,3-dihydrobenzofuran-5-yl)-2,3-dihydro-1-benzothiepin-8-ol] | 1 | 20 | 13 | 0.3 | 5 | 0.6 | 0.2 | 88 |  |  |  |
| CC1(C)Cc2cc(C3=C(c4ccc(O[C@H]5CCN(CCCF)C5)cc4)c4ccc(O)cc4SCC3)ccc2N1 [Example 198, 4-(2,2-dimethylindolin-5-yl)-5-[4-[(3S)-1-(3-fluoropropyl)pyrrolidin-3-yl]oxyphenyl]-2,3-dihydro-1-benzothiepin-8-ol] |  |  |  | 0.4 | 6 | 1 | 0.2 | 87 | 1 | 8 | 6 |
| CONC(=O)c1cc(C2=C(c3ccc(O[C@H]4CCN(CCCF)C4)cc3)c3ccc(O)cc3SCC2)ccc1F [Example 199, 2-fluoro-5-[5-[4-[(3S)-1-(3-fluoropropyl)pyrrolidin-3-yl]oxyphenyl]-8-hydroxy-2,3-dihydro-1-benzothiepin-4-yl]-N-methoxy-benzamide] | 21 | 456 | 316 | 0.2 | 4 | 0.2 | 0.4 | 94 |  |  |  |
| CCNc1ccc(C2=C(c3ccc(O[C@H]4CCN(CCCF)C4)cc3)c3ccc(O)cc3SCC2)c(F)c1 [Example 200, 4-[4-(ethylamino)-2-fluoro-phenyl]-5-[4-[(3S)-1-(3-fluoropropyl)pyrrolidin-3-yl]oxyphenyl]-2,3-dihydro-1-benzothiepin-8-ol] | 3 | 51 | 33 | 0.7 | 12 | 2 | 0.5 | 91 |  |  |  |
| CC1(C)Cc2cc(C3=C(c4ccc(O[C@H]5CCN(CCCF)C5)cc4)c4ccc(O)cc4SCC3)ccc2O1 [Example 201, 4-(2,2-dimethyl-3H-benzofuran-5-yl)-5-[4-[(3S)-1-(3-fluoropropyl)pyrrolidin-3-yl]oxyphenyl]-2,3-dihydro-1-benzothiepin-8-ol] | 1 | 21 | 15 | 0.2 | 8 | 1 | 0.8 | 85 |  |  |  |
